Test system: Energy system protein genes
Assay: DNA chip mRNA expression in yeast, energy system protein genes (Table 4)
Assay type: cell-based, Saccharomyces cerevisiae S288C
Summary of the method: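 S. cerevisiae S288C grown at 25° C. in YPD to log phase, then exposed 2 h to a toxicant at a growth-inhibiting, non-lethal concentration; untreated cells as control. Poly(A) mRNA reverse-transcribed with Cy3-dUTP or Cy5-dUTP, hybridized >12 h at 65° C. to whole-genome yeast DNA chip; value = fluorescence ratio treated/untreated.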

Measured: The level of expressed mRNA in the presence of chemical substance/The level of expressed mRNA in the absence of chemical substance

CCCCC[C@H](O)CC(=O)CCc1ccc(O)c(OC)c1 [(13), gingerol]
0.7: yeast gene YBR299W | yeast gene YCR005C | yeast gene YDR377W, cells incubated two hours with the chemical substance | yeast gene YDR529C, cells incubated two hours with the chemical substance | yeast gene YGL134W | yeast gene YGL187C, cells incubated two hours with the chemical substance | yeast gene YJL121C, cells incubated two hours with the chemical substance | yeast gene YKR058W, cells incubated two hours with the chemical substance, 25° C., YPD medium | yeast gene YMR267W, cells incubated two hours with the chemical substance, 25° C., YPD medium
3.2: yeast gene YNL237W
1.7: yeast gene YIL111W | yeast gene YLR273C
2.0: yeast gene YBR145W | yeast gene YIL045W | yeast gene YIL172C | yeast gene YKL035W
0.6: yeast gene YDL067C, cells incubated two hours with the chemical substance | yeast gene YEL024W, cells incubated two hours with the chemical substance | yeast gene YPR048W, cells incubated two hours with the chemical substance
2.2: yeast gene YAL060W | yeast gene YML125C
3.3: yeast gene YMR105C
3.1: yeast gene YGR254W | yeast gene YNL331C
0.4: yeast gene YDR380W | yeast gene YJR048W
3.4: yeast gene YGR008C | yeast gene YGR192C
3.0: yeast gene YFR053C
1.0: yeast gene YBR185C, cells incubated two hours with the chemical substance | yeast gene YDL078C, cells incubated two hours with the chemical substance | yeast gene YGL205W, cells incubated two hours with the chemical substance | yeast gene YGR207C | yeast gene YIR031C, cells incubated two hours with the chemical substance | yeast gene YJR121W, cells incubated two hours with the chemical substance | yeast gene YLL041C, cells incubated two hours with the chemical substance | yeast gene YLR164W, cells incubated two hours with the chemical substance | yeast gene YLR354C, cells incubated two hours with the chemical substance | yeast gene YML129C, cells incubated two hours with the chemical substance | yeast gene YOR178C, cells incubated two hours with the chemical substance | yeast gene YOR221C | yeast gene YPL275W, cells incubated two hours with the chemical substance
2.3: yeast gene YIL160C | yeast gene YMR089C | yeast gene YPR026W
5.9: yeast gene YDL174C
2.1: yeast gene YBR126C
2.5: yeast gene YFR015C | yeast gene YNL071W
1.8: yeast gene YAL038W | yeast gene YAL054C | yeast gene YHL008C | yeast gene YKL150W | yeast gene YOR347C | yeast gene YPR006C
1.5: yeast gene YCR046C, cells incubated two hours with the chemical substance | yeast gene YEL011W | yeast gene YGL253W | yeast gene YGR062C, cells incubated two hours with the chemical substance, 25° C., YPD medium | yeast gene YKL085W, cells incubated two hours with the chemical substance | yeast gene YML087C | yeast gene YOR136W
3.8: yeast gene YML100W
1.2: yeast gene YDL107W, cells incubated two hours with the chemical substance | yeast gene YDR298C, cells incubated two hours with the chemical substance | yeast gene YEL020C | yeast gene YKL060C, cells incubated two hours with the chemical substance | yeast gene YML120C, cells incubated two hours with the chemical substance | yeast gene YMR073C, cells incubated two hours with the chemical substance | yeast gene YPL271W
2.6: yeast gene YGR244C | yeast gene YHR179W | yeast gene YOL126C
2.4: yeast gene YDR231C | yeast gene YER178W | yeast gene YPL171C
1.3: yeast gene YMR205C, cells incubated two hours with the chemical substance
2.8: yeast gene YDR001C | yeast gene YML054C
3.7: yeast gene YOL165C
1.4: yeast gene YBR196C | yeast gene YOL157C
1.1: yeast gene YGL191W, cells incubated two hours with the chemical substance | yeast gene YGR112W, cells incubated two hours with the chemical substance | yeast gene YJL216C, cells incubated two hours with the chemical substance | yeast gene YOR388C, cells incubated two hours with the chemical substance | yeast gene YPL061W, cells incubated two hours with the chemical substance
4.0: yeast gene YCR107W
1.6: yeast gene YBL058W, cells incubated two hours with the chemical substance | yeast gene YEL047C, cells incubated two hours with the chemical substance | yeast gene YEL071W, cells incubated two hours with the chemical substance | yeast gene YJL045W, cells incubated two hours with the chemical substance | yeast gene YMR261C, cells incubated two hours with the chemical substance | yeast gene YPL031C, cells incubated two hours with the chemical substance
1.9: yeast gene YNL037C
2.9: yeast gene YPL240C

Source: patent US8192962B2, “Processes for detecting toxic substances” (Daikin Industries, Ltd., priority 2001, dated 2012)
